Calls of active or inactive are those of the source. The calls are words filed in the database; no cut-off is given here.
What was measured:
[1] = system: Mus musculus; experiment: Neurotoxicity in albino CF1 mouse assessed as behavioral impairment at 30 mg/kg, ip after 0.5 hrs by rotorod test; type: toxicity, organism-based; conditions: in vivo
[2] = system: Rattus norvegicus; experiment: Neurotoxicity in albino Sprague-Dawley rat assessed as behavioral impairment at 30 mg/kg, po after 2 hrs by rotorod test; type: toxicity, organism-based; conditions: in vivo
[3] = system: Rattus norvegicus; experiment: Neurotoxicity in albino Sprague-Dawley rat assessed as behavioral impairment at 30 mg/kg, po after 0.25 hrs by rotorod test; type: toxicity, organism-based; conditions: in vivo
[4] = system: Rattus norvegicus; experiment: Neurotoxicity in albino Sprague-Dawley rat assessed as behavioral impairment at 30 mg/kg, ip after 0.5 hrs by rotorod test; type: toxicity, organism-based; conditions: in vivo
[5] = system: Mus musculus; experiment: Anticonvulsant activity in ip dosed albino CF1 mouse assessed as protection against subcutaneous metrazol-induced seizures; type: functional
[6] = system: Rattus norvegicus; experiment: Anticonvulsant activity in albino Sprague-Dawley rat assessed as protection against maximal electroshock-induced seizures at 30 mg/kg, po after 1 hr; type: functional, organism-based
[7] = system: Rattus norvegicus; experiment: Anticonvulsant activity in albino Sprague-Dawley rat assessed as protection against maximal electroshock-induced seizures at 30 mg/kg, po after 0.5 hrs; type: functional, organism-based
[8] = system: Mus musculus; experiment: Anticonvulsant activity in albino CF1 mouse assessed as protection against 32 mA current-induced seizure at 30 mg/kg, ip after 0.5 hrs by 6 Hz psychomotor test; type: functional, organism-based
[9] = system: Mus musculus; experiment: Anticonvulsant activity in ip dosed albino CF1 mouse assessed as protection against 6 Hz current-induced seizure by measuring time to peak effect; type: functional
[10] = system: Mus musculus; experiment: Neurotoxicity in albino CF1 mouse assessed as behavioral impairment at 100 mg/kg, ip after 1 hr by rotorod test; type: toxicity, organism-based; conditions: in vivo
[11] = system: Mus musculus; experiment: Anticonvulsant activity in albino CF1 mouse assessed as protection against maximal electroshock-induced seizures at 100 mg/kg, ip after 2 hrs; type: functional, organism-based
[12] = system: Mus musculus; experiment: Neurotoxicity in albino CF1 mouse assessed as behavioral impairment at 30 mg/kg, ip after 2 hrs by rotorod test; type: toxicity, organism-based; conditions: in vivo
[13] = system: Mus musculus; experiment: Neurotoxicity in albino CF1 mouse assessed as behavioral impairment at 100 mg/kg, ip after 2 hrs by rotorod test; type: toxicity, organism-based; conditions: in vivo
[14] = system: Rattus norvegicus; experiment: Neurotoxicity in albino Sprague-Dawley rat assessed as behavioral impairment at 30 mg/kg, po after 0.5 hrs by rotorod test; type: toxicity, organism-based; conditions: in vivo
[15] = system: Rattus norvegicus; experiment: Anticonvulsant activity in albino Sprague-Dawley rat assessed as protection against maximal electroshock-induced seizures at 30 mg/kg, po after 0.25 hrs; type: functional, organism-based
[16] = Protective index, ratio of TD50 for neurotoxicity in ip dosed albino Sprague-Dawley rat to ED50 for anticonvulsant activity in ip dosed subcutaneous metrazol-induced seizure albino Sprague-Dawley rat model; type: toxicity, organism-based; conditions: in vivo, read-out: Ratio TD50/ED50
[17] = system: Mus musculus; experiment: Neurotoxicity in albino CF1 mouse assessed as behavioral impairment at 100 mg/kg, ip after 0.25 hrs by rotorod test; type: toxicity, organism-based; conditions: in vivo
[18] = system: Rattus norvegicus; experiment: Neurotoxicity in albino Sprague-Dawley rat assessed as behavioral impairment at 30 mg/kg, ip after 2 hrs by rotorod test; type: toxicity, organism-based; conditions: in vivo
[19] = system: Mus musculus; experiment: Neurotoxicity in albino CF1 mouse assessed as behavioral impairment at 100 mg/kg, ip after 0.5 hrs by rotorod test; type: toxicity, organism-based; conditions: in vivo
[20] = system: Mus musculus; experiment: Anticonvulsant activity in albino CF1 mouse assessed as protection against maximal electroshock-induced seizures at 30 mg/kg, ip after 2 hrs; type: functional, organism-based
[21] = system: Mus musculus; experiment: Anticonvulsant activity in ip dosed albino CF1 mouse assessed as protection against maximal electroshock-induced seizures; type: functional
[22] = system: Mus musculus; experiment: Anticonvulsant activity in ip dosed albino CF1 mouse assessed as protection against maximal electroshock-induced seizures by measuring time to peak effect; type: functional
[23] = Protective index, ratio of TD50 for neurotoxicity in ip dosed albino Sprague-Dawley rat to ED50 for anticonvulsant activity in ip dosed maximal electroshock-induced seizure albino Sprague-Dawley rat model; type: toxicity, organism-based; conditions: in vivo, read-out: Ratio TD50/ED50
[24] = system: Mus musculus; experiment: Anticonvulsant activity in ip dosed albino CF1 mouse assessed as protection against 6 Hz current-induced seizures by psychomotor test; type: functional
[25] = system: Rattus norvegicus; experiment: Anticonvulsant activity in albino Sprague-Dawley rat assessed as protection against maximal electroshock-induced seizures at 30 mg/kg, po after 2 hrs; type: functional, organism-based
[26] = system: Rattus norvegicus; experiment: Neurotoxicity in albino Sprague-Dawley rat assessed as behavioral impairment at 30 mg/kg, po after 1 hr by rotorod test; type: toxicity, organism-based; conditions: in vivo
[27] = Neurotoxicity in ip dosed albino Sprague-Dawley rat assessed as motor impairment by rotorod test; type: toxicity, organism-based; conditions: in vivo
[28] = system: Mus musculus; experiment: Anticonvulsant activity in albino CF1 mouse assessed as protection against maximal electroshock-induced seizures at 100 mg/kg, ip after 0.5 hrs; type: functional, organism-based
[29] = system: Rattus norvegicus; experiment: Anticonvulsant activity in ip dosed albino Sprague-Dawley rat assessed as protection against subcutaneous metrazol-induced seizures; type: functional
[30] = system: Rattus norvegicus; experiment: Anticonvulsant activity in ip dosed albino Sprague-Dawley rat assessed as protection against subcutaneous metrazol-induced seizures by measuring time to peak effect; type: functional
[31] = system: Rattus norvegicus; experiment: Neurotoxicity in albino Sprague-Dawley rat assessed as behavioral impairment at 30 mg/kg, ip after 0.25 hrs by rotorod test; type: toxicity, organism-based; conditions: in vivo
[32] = system: Mus musculus; experiment: Anticonvulsant activity in albino CF1 mouse assessed as protection against 32 mA current-induced seizure at 100 mg/kg, ip after 0.5 hrs by 6 Hz psychomotor test; type: functional, organism-based
[33] = system: Rattus norvegicus; experiment: Anticonvulsant activity in ip dosed albino Sprague-Dawley rat assessed as protection against maximal electroshock-induced seizures; type: functional
[34] = system: Mus musculus; experiment: Anticonvulsant activity in ip dosed albino CF1 mouse assessed as protection against subcutaneous metrazol-induced seizures by measuring time to peak effect; type: functional
[35] = system: Mus musculus; experiment: Anticonvulsant activity in albino CF1 mouse assessed as protection against 32 mA current-induced seizure at 30 mg/kg, ip after 2 hrs by 6 Hz psychomotor test; type: functional, organism-based
[36] = system: Mus musculus; experiment: Neurotoxicity in albino CF1 mouse assessed as behavioral impairment at 300 mg/kg, ip after 0.5 hrs by rotorod test; type: toxicity, organism-based; conditions: in vivo
[37] = Neurotoxicity in ip dosed albino CF1 mouse assessed as motor impairment by rotorod test; type: toxicity, organism-based; conditions: in vivo
[38] = system: Mus musculus; experiment: Anticonvulsant activity in albino CF1 mouse assessed as protection against 44 mA current-induced seizure at 100 mg/kg, ip after 0.25 hrs by 6 Hz psychomotor test; type: functional, organism-based
[39] = system: Mus musculus; experiment: Anticonvulsant activity in albino CF1 mouse assessed as protection against 44 mA current-induced seizure at 100 mg/kg, ip after 2 hrs by 6 Hz psychomotor test; type: functional, organism-based
[40] = Protective index, ratio of TD50 for neurotoxicity in ip dosed albino CF1 mouse to ED50 for anticonvulsant activity in ip dosed 6 Hz current-induced seizure albino CF1 mouse model; conditions: in vivo
[41] = system: Rattus norvegicus; experiment: Anticonvulsant activity in ip dosed albino Sprague-Dawley rat assessed as protection against maximal electroshock-induced seizures by measuring time to peak effect; type: functional
[42] = system: Rattus norvegicus; experiment: Neurotoxicity in albino Sprague-Dawley rat assessed as behavioral impairment at 30 mg/kg, ip after 1 hr by rotorod test; type: toxicity, organism-based; conditions: in vivo
[43] = Protective index, ratio of TD50 for neurotoxicity in ip dosed albino CF1 mouse to ED50 for anticonvulsant activity in ip dosed maximal electroshock-induced seizure albino CF1 mouse model; type: toxicity, organism-based; conditions: in vivo, read-out: Ratio TD50/ED50
[44] = system: Mus musculus; experiment: Anticonvulsant activity in albino CF1 mouse assessed as protection against 32 mA current-induced seizure at 300 mg/kg, ip after 0.5 hrs by 6 Hz psychomotor test; type: functional, organism-based
[45] = system: Mus musculus; experiment: Neurotoxicity in albino CF1 mouse assessed as behavioral impairment at 50 mg/kg, ip after 1 hr by rotorod test; type: toxicity, organism-based; conditions: in vivo
[46] = system: Rattus norvegicus; experiment: Anticonvulsant activity in albino Sprague-Dawley rat assessed as protection against maximal electroshock-induced seizures at 30 mg/kg, ip after 0.25 hrs; type: functional, organism-based
[47] = system: Mus musculus; experiment: Neurotoxicity in albino CF1 mouse assessed as behavioral impairment at 50 mg/kg, ip after 2 hrs by rotorod test; type: toxicity, organism-based; conditions: in vivo
[48] = system: Mus musculus; experiment: Anticonvulsant activity in albino CF1 mouse assessed as protection against 44 mA current-induced seizure at 50 mg/kg, ip after 0.25 hrs by 6 Hz psychomotor test; type: functional, organism-based
[49] = system: Mus musculus; experiment: Anticonvulsant activity in albino CF1 mouse assessed as protection against maximal electroshock-induced seizures at 300 mg/kg, ip after 0.5 hrs; type: functional, organism-based
[50] = Protective index, ratio of TD50 for neurotoxicity in ip dosed albino CF1 mouse to ED50 for anticonvulsant activity in ip dosed […] metrazol-induced seizure albino CF1 mouse model; type: toxicity, organism-based; conditions: in vivo, read-out: Ratio TD50/ED50
[51] = system: Mus musculus; experiment: Anticonvulsant activity in albino CF1 mouse assessed as protection against 32 mA current-induced seizure at 300 mg/kg, ip after 2 hrs by 6 Hz psychomotor test; type: functional, organism-based
[52] = system: Mus musculus; experiment: Neurotoxicity in albino CF1 mouse assessed as behavioral impairment at 300 mg/kg, ip after 2 hrs by rotorod test; type: toxicity, organism-based; conditions: in vivo
[53] = system: Rattus norvegicus; experiment: Anticonvulsant activity in albino Sprague-Dawley rat assessed as protection against maximal electroshock-induced seizures at 30 mg/kg, ip after 0.5 hrs; type: functional, organism-based
[54] = system: Mus musculus; experiment: Anticonvulsant activity in albino CF1 mouse assessed as protection against 32 mA current-induced seizure at 100 mg/kg, ip after 2 hrs by 6 Hz psychomotor test; type: functional, organism-based
[55] = system: Rattus norvegicus; experiment: Anticonvulsant activity in albino Sprague-Dawley rat assessed as protection against maximal electroshock-induced seizures at 30 mg/kg, ip after 2 hrs; type: functional, organism-based
[56] = system: Mus musculus; experiment: Neurotoxicity in albino CF1 mouse assessed as behavioral impairment at 50 mg/kg, ip after 0.25 hrs by rotorod test; type: toxicity, organism-based; conditions: in vivo

## CC(COC(=O)NCCCn1ccnc1)CC(C)(C)C (stereo not given)
[1]
  Activity: Non-toxic
[2]
  Activity: Non-toxic
[3]
  Activity: Non-toxic
[4]
  Activity: Non-toxic
[5]
  ED50: inactive
[6]
  Activity: inactive
[7]
  Activity: inactive
[8]
  Activity: inactive
[9]
  Time: 0.5 h
[10]
  Activity: Non-toxic
[11]
  Activity: Active
[12]
  Activity: Non-toxic
[13]
  Activity: Non-toxic
[14]
  Activity: Non-toxic
[15]
  Activity: inactive
[16]
  selectivity ratio: 1
[17]
  Activity: Toxic
[18]
  Activity: Non-toxic
[19]
  Activity: Toxic
[20]
  Activity: inactive
[21]
  ED50: inactive
[22]
  Time: 0.5 h
[23]
  selectivity ratio: 4.1
[24]
  ED50: 44 mg/kg
[25]
  Activity: inactive
[26]
  Activity: Non-toxic
[27]
  TD50: 70 mg/kg
[28]
  Activity: Active
[29]
  ED50: > 70 mg/kg
[30]
  Time: 0.25 h
[31]
  Activity: Non-toxic
[32]
  Activity: Active
[33]
  ED50: 17 mg/kg
[34]
  Time: 0.5 h
[35]
  Activity: inactive
[36]
  Activity: Toxic
[37]
  TD50: 60 mg/kg
[38]
  Activity: Active
[39]
  Activity: inactive
[40]
  selectivity ratio: 1.4
[41]
  Time: 0.25 h
[42]
  Activity: Non-toxic

## CCCC(CCC)COC(=O)NCCCn1ccnc1
[1]
  Activity: Non-toxic
[2]
  Activity: Non-toxic
[43]
  selectivity ratio: 3.3
[3]
  Activity: Non-toxic
[4]
  Activity: Non-toxic
[5]
  ED50: > 70 mg/kg
[6]
  Activity: inactive
[7]
  Activity: inactive
[8]
  Activity: inactive
[9]
  Time: 0.5 h
[44]
  Activity: Active
[12]
  Activity: Non-toxic
[14]
  Activity: Non-toxic
[16]
  selectivity ratio: 1
[45]
  Activity: Non-toxic
[18]
  Activity: Non-toxic
[20]
  Activity: inactive
[46]
  Activity: Active
[47]
  Activity: Non-toxic
[21]
  ED50: 18 mg/kg
[48]
  Activity: inactive
[49]
  Activity: Active
[22]
  Time: 0.5 h
[23]
  selectivity ratio: 7.3
[24]
  ED50: 32 mg/kg
[50]
  selectivity ratio: 0.9
[25]
  Activity: inactive
[26]
  Activity: Non-toxic
[27]
  TD50: 87 mg/kg
[28]
  Activity: Active
[29]
  ED50: > 88 mg/kg
[51]
  Activity: Active
[30]
  Time: 0.25 h
[31]
  Activity: Non-toxic
[32]
  Activity: Active
[33]
  ED50: 12 mg/kg
[34]
  Time: 0.5 h
[35]
  Activity: inactive
[36]
  Activity: Toxic
[52]
  Activity: Toxic
[53]
  Activity: Active
[37]
  TD50: 65 mg/kg
[40]
  selectivity ratio: 2
[41]
  Time: 0.25 h
[42]
  Activity: Non-toxic
[54]
  Activity: Active
[55]
  Activity: inactive
[56]
  Activity: Non-toxic

— ChEMBL document CHEMBL3826915, “Design and comparative anticonvulsant activity assessment of CNS-active alkyl-carbamoyl imidazole derivatives” (Bioorg Med Chem, 2016)
